Blank lines part the entries; values can stand above or below the molecule they belong to.
Columns and labels:
[1] = molecular target: T1, GSPT1 (Homo sapiens, UniProt P15170+Q96SW2); experiment: Western-blot assay of substrate protein degradation in hPBMCs, GSPT1; assay type: cell-based; details: 24 hours of compound treatment, compounds tested at 50 nM and 500 nM (concentration of the table not stated)
T1 construct: endogenous in cells; host or cells: hPBMCs (Milecell Biotechnologies)

[2] = molecular target: T2, IKZF3 (Homo sapiens, UniProt Q96SW2+Q9UKT9); experiment: Western-blot assay of substrate protein degradation in hPBMCs, IKZF3; assay type: cell-based; details: 24 hours of compound treatment, compounds tested at 50 nM and 500 nM (concentration of the table not stated)
T2 construct: endogenous in cells; host or cells: hPBMCs (Milecell Biotechnologies)
T2 sequence (Q9UKT9 whole entry): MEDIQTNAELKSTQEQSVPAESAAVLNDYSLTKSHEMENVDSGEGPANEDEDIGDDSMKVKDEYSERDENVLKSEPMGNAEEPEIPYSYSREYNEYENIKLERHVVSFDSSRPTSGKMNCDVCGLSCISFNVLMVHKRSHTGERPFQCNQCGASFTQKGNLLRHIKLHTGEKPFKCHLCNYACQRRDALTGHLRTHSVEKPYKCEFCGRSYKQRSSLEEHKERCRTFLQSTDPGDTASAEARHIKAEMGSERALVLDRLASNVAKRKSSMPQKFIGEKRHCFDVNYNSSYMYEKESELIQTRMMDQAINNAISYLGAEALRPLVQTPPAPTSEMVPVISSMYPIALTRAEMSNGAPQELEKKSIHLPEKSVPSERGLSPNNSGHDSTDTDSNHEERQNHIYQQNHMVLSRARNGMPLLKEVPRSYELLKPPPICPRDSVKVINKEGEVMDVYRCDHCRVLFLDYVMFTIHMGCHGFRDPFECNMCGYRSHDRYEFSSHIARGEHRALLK
T2 sequence (Q96SW2 whole entry): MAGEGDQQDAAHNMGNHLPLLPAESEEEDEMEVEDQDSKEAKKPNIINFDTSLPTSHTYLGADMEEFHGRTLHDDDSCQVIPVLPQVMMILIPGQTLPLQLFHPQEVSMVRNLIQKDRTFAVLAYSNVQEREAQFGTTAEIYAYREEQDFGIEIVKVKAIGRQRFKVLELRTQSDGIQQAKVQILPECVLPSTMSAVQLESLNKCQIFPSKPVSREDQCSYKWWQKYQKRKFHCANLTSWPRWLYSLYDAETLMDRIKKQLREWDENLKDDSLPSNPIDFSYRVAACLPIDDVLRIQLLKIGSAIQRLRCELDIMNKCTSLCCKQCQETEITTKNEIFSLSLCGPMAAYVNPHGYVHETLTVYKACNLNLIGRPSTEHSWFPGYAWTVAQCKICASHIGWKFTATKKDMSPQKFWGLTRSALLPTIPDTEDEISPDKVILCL
T2 sequence (Q16531 whole entry partner): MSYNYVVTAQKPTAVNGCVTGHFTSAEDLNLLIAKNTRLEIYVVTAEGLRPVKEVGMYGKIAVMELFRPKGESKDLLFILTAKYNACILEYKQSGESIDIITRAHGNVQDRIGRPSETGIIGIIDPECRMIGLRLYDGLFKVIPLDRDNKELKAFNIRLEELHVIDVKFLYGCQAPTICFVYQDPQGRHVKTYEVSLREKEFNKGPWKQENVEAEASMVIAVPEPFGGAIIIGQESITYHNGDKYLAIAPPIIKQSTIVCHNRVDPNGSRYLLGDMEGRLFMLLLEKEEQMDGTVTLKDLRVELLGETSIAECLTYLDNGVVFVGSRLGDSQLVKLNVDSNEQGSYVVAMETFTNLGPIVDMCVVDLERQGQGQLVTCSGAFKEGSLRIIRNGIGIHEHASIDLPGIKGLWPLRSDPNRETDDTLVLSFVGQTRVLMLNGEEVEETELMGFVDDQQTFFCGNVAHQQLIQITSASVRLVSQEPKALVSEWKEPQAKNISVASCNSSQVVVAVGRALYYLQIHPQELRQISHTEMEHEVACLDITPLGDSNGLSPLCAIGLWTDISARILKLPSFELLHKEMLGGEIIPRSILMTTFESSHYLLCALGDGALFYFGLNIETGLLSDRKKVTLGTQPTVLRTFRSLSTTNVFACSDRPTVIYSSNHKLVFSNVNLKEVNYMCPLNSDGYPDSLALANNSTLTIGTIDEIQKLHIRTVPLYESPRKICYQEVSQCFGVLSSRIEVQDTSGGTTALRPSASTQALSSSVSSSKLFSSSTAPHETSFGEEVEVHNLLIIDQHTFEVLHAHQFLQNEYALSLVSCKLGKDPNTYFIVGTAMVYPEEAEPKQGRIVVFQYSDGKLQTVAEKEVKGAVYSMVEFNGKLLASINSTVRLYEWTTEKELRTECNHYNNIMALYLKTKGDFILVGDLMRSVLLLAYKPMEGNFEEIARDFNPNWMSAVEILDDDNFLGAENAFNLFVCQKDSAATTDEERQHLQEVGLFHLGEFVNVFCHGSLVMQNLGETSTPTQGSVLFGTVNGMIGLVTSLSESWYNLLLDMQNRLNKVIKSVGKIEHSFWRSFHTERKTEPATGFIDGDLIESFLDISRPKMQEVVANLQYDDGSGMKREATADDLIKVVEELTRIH

[3] = molecular target: T3, human Cereblon WT GST-tagged protein (Homo sapiens, UniProt Q96SW2); experiment: CRBN-binding affinity by HTRF (CEREBLON BINDING kit); details: HTRF inhibitory activity, CEREBLON BINDING kit; read-out: HTRF IC50
T3 construct: purchased CISBIO 64BDCRBNPEH
T3 sequence (Q96SW2 whole entry): as the sequence (Q96SW2 whole entry) above
Procedure: The CEREBLON BINDING kits (specification: 10,000 tests; product number: Catalog # 64BDCRBNPEH; CISBIO company) was used to determine the CRBN binding ability of the compounds to be tested through a HTRF method (homogeneous time-resolved fluorescence). The specific methods are as follows: • 1. […] Specifically, diluent #9 (1X) solution was used as the diluent, and multiple concentration gradients were set. […] Then, 2.5 µL of human Cereblon WT GST-tagged protein solution was added to each well. Finally, 5 µL of the thoroughly mixed Thalidomide-Re reagent and GST Eu antibody working solution were added to each of the aforementioned wells. […] The blank control wells were sequentially added with 2.5 µL of diluent #9 (1X) solution, 2.5 µL of binding buffer, and 5 µL of thoroughly mixed Thalidomide-Re reagent and GST Eu antibody working solution. • 4.

[4] = molecular target: T4, WEE1 (Homo sapiens, UniProt P30291+Q96SW2); experiment: Western-blot assay of substrate protein degradation in hPBMCs, WEE1; assay type: cell-based; details: 24 hours of compound treatment, compounds tested at 50 nM and 500 nM (concentration of the table not stated)
T4 construct: endogenous in cells; host or cells: hPBMCs (Milecell Biotechnologies)
T4 sequence (P30291 whole entry): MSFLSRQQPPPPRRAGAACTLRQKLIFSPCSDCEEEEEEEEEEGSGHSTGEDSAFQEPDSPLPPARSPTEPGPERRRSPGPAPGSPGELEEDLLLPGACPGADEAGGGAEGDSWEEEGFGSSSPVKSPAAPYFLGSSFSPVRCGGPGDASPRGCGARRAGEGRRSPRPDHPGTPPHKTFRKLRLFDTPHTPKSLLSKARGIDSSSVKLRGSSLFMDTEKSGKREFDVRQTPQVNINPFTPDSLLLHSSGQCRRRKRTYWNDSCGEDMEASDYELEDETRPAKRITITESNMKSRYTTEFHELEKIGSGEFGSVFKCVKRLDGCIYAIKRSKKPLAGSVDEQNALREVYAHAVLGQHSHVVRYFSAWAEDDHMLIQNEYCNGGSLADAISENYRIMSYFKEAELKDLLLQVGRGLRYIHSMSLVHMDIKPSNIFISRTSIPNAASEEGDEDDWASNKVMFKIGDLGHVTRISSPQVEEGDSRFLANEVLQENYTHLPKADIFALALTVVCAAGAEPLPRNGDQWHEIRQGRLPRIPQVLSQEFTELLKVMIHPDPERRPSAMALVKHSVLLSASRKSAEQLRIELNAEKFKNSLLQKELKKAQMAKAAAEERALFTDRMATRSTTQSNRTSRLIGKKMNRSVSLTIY
T4 sequence (Q96SW2 whole entry): as the sequence (Q96SW2 whole entry) above
T4 sequence (Q16531 whole entry partner): as the sequence (Q16531 whole entry partner) above

[5] = molecular target: T5, IKZF1 (Homo sapiens, UniProt Q13422+Q96SW2); experiment: Western-blot assay of substrate protein degradation in hPBMCs, IKZF1; assay type: cell-based; details: 24 hours of compound treatment, compounds tested at 50 nM and 500 nM (concentration of the table not stated)
T5 construct: endogenous in cells; host or cells: hPBMCs (Milecell Biotechnologies)
T5 sequence (Q13422 whole entry): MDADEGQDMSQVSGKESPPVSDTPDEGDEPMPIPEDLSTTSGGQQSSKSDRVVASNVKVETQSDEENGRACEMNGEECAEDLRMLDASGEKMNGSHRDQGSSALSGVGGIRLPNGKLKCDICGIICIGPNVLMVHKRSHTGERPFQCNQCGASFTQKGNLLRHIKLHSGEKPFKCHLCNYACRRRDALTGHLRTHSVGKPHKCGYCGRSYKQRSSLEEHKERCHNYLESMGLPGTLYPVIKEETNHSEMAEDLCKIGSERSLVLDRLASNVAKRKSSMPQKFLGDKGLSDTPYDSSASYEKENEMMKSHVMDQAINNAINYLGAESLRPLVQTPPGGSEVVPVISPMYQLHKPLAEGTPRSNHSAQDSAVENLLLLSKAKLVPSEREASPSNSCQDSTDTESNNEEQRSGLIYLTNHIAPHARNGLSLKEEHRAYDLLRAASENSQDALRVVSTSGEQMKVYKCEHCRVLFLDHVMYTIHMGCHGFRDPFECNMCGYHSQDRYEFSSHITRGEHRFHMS
T5 sequence (Q96SW2 whole entry): as the sequence (Q96SW2 whole entry) above
T5 sequence (Q16531 whole entry partner): as the sequence (Q16531 whole entry partner) above

[6] = molecular target: T6, CK1α (Homo sapiens, UniProt P48729+Q96SW2); experiment: Western-blot assay of substrate protein degradation in hPBMCs, CK1α; assay type: cell-based; details: 24 hours of compound treatment, compounds tested at 50 nM and 500 nM (concentration of the table not stated)
T6 construct: endogenous in cells; host or cells: hPBMCs (Milecell Biotechnologies)
T6 sequence (P48729 whole entry): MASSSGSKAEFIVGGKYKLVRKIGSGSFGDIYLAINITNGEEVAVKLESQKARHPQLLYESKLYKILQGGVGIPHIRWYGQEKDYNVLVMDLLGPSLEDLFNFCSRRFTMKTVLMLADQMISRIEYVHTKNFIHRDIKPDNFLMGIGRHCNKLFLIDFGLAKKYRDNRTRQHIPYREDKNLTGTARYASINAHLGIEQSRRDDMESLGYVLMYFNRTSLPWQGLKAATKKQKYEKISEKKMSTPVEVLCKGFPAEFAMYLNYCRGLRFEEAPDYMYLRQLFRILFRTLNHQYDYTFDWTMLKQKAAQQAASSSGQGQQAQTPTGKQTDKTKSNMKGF
T6 sequence (Q96SW2 whole entry): as the sequence (Q96SW2 whole entry) above
T6 sequence (Q16531 whole entry partner): as the sequence (Q16531 whole entry partner) above

[7] = molecular target: T7, IKZF2 (Homo sapiens, UniProt Q96SW2+Q9UKS7); experiment: Western-blot assay of substrate protein degradation in hPBMCs, IKZF2; assay type: cell-based; details: 24 hours of compound treatment, compounds tested at 50 nM and 500 nM (concentration of the table not stated)
T7 construct: endogenous in cells; host or cells: hPBMCs (Milecell Biotechnologies)

T1 sequence (P15170 whole entry): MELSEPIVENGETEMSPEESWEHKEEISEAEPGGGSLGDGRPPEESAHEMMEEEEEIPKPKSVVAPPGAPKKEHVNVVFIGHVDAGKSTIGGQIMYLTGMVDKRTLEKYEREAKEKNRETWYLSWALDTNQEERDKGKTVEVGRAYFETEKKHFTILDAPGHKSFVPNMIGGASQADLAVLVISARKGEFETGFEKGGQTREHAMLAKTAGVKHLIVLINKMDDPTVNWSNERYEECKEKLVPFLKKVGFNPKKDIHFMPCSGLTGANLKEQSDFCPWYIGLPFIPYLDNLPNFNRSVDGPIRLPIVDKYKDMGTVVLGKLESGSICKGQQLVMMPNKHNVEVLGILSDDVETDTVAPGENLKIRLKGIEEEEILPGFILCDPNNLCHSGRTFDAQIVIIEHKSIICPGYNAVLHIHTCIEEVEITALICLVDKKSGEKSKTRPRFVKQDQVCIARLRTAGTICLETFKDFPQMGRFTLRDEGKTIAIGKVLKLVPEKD
T1 sequence (Q96SW2 whole entry): as the sequence (Q96SW2 whole entry) above
T1 sequence (Q16531 whole entry partner): as the sequence (Q16531 whole entry partner) above

Structure (SMILES): O=C1CCC(N2Cc3cc(CN4CCN(c5ccncc5)CC4)ccc3C2=O)C(=O)N1 (stereo not drawn) [GT-04450, 3-(1-oxo-5-((4-(pyridin-4-yl)piperazin-1-yl)methyl)isoindolin-2-yl)piperidine-2,6-dione]
GSPT1 substrate protein remaining % [1]: A (0% ≤ substrate protein remaining % ≤ 80%) | IKZF3 substrate protein remaining % [2]: B (80%< substrate protein remaining %≤ 100%) | IC50 [3]: 500 to 1000 nM | Weel substrate protein remaining % [4]: B (80%< substrate protein remaining %≤ 100%) | IKZF 1 substrate protein remaining % [5]: B (80%< substrate protein remaining %≤ 100%) | CK1a substrate protein remaining % [6]: B (80%< substrate protein remaining %≤ 100%) | IKZF2 substrate protein remaining % [7]: B (80%< substrate protein remaining %≤ 100%)

Structure (SMILES): O=C1CCC(N2Cc3cc(CN4CCN(c5ccc(Cl)cc5Cl)CC4)ccc3C2=O)C(=O)N1 (stereo not drawn) [GT-04464, 3-(5-((4-(2,4-dichlorophenyl)piperazin-1-yl)methyl)-1-oxoisoindolin-2-yl)piperidine-2,6-dione]
GSPT1 substrate protein remaining % [1]: A (0% ≤ substrate protein remaining % ≤ 80%) | IKZF3 substrate protein remaining % [2]: B (80%< substrate protein remaining %≤ 100%) | IC50 [3]: 1000 to 1500 nM | Weel substrate protein remaining % [4]: B (80%< substrate protein remaining %≤ 100%) | IKZF 1 substrate protein remaining % [5]: B (80%< substrate protein remaining %≤ 100%) | CK1a substrate protein remaining % [6]: B (80%< substrate protein remaining %≤ 100%) | IKZF2 substrate protein remaining % [7]: A (0% ≤ substrate protein remaining % ≤ 80%)

Structure (SMILES): O=C1CCC(N2Cc3cc(CN4CCN(c5cccnn5)CC4)ccc3C2=O)C(=O)N1 (stereo not drawn) [GT-04473, 3-(1-oxo-5-((4-(pyridazin-3-yl)piperazin-1-yl)methyl)isoindolin-2-yl)piperidine-2,6-dione]
GSPT1 substrate protein remaining % [1]: A (0% ≤ substrate protein remaining % ≤ 80%) | IKZF3 substrate protein remaining % [2]: B (80%< substrate protein remaining %≤ 100%) | IC50 [3]: 500 to 1000 nM | Weel substrate protein remaining % [4]: A (0% ≤ substrate protein remaining % ≤ 80%) | IKZF 1 substrate protein remaining % [5]: A (0% ≤ substrate protein remaining % ≤ 80%) | CK1a substrate protein remaining % [6]: B (80%< substrate protein remaining %≤ 100%) | IKZF2 substrate protein remaining % [7]: B (80%< substrate protein remaining %≤ 100%)

Structure (SMILES): O=C1CCC(N2Cc3cc(CN4CCN(c5ncc(Cl)cc5Cl)CC4)ccc3C2=O)C(=O)N1 (stereo not drawn) [GT-04479, 3-(5-((4-(3,5-dichloropyridin-2-yl)piperazin-1-yl)methyl)-1-oxoisoindolin-2-yl)piperidine-2,6-dione]
GSPT1 substrate protein remaining % [1]: A (0% ≤ substrate protein remaining % ≤ 80%) | IKZF3 substrate protein remaining % [2]: A (0% ≤ substrate protein remaining % ≤ 80%) | IC50 [3]: 500 to 1000 nM | Weel substrate protein remaining % [4]: B (80%< substrate protein remaining %≤ 100%) | IKZF 1 substrate protein remaining % [5]: B (80%< substrate protein remaining %≤ 100%) | CK1a substrate protein remaining % [6]: B (80%< substrate protein remaining %≤ 100%) | IKZF2 substrate protein remaining % [7]: A (0% ≤ substrate protein remaining % ≤ 80%)

Structure (SMILES): O=C1CCC(N2Cc3cc(CN4CCN(c5ncc(C(F)(F)F)cc5Cl)CC4)ccc3C2=O)C(=O)N1 (stereo not drawn) [GT-04480, 3-(5-((4-(3-chloro-5-(trifluoromethyl)pyridin-2-yl)piperazin-1-yl)methyl)-1-oxoisoindolin-2-yl)piperidine-2,6-dione]
GSPT1 substrate protein remaining % [1]: A (0% ≤ substrate protein remaining % ≤ 80%) | IKZF3 substrate protein remaining % [2]: A (0% ≤ substrate protein remaining % ≤ 80%) | IC50 [3]: 1500 to 1900 nM | Weel substrate protein remaining % [4]: A (0% ≤ substrate protein remaining % ≤ 80%) | IKZF 1 substrate protein remaining % [5]: A (0% ≤ substrate protein remaining % ≤ 80%) | CK1a substrate protein remaining % [6]: A (0% ≤ substrate protein remaining % ≤ 80%) | IKZF2 substrate protein remaining % [7]: A (0% ≤ substrate protein remaining % ≤ 80%)

The next lines start with results.

IC50 [3]: 500 to 1000 nM
Structure (SMILES): O=C1CCC(N2Cc3cc(CN4CCc5sccc5C4)ccc3C2=O)C(=O)N1 (stereo not drawn) [GT-04200, 3-(5-((6,7-dihydrothieno[3,2-c]pyridin-5(4H)-yl)methyl)-1-oxoisoindolin-2-yl)piperidine-2,6-dione]
GSPT1 substrate protein remaining % [1]: B (80%< substrate protein remaining %≤ 100%) | IKZF3 substrate protein remaining % [2]: A (0% ≤ substrate protein remaining % ≤ 80%) | Weel substrate protein remaining % [4]: A (0% ≤ substrate protein remaining % ≤ 80%) | IKZF 1 substrate protein remaining % [5]: B (80%< substrate protein remaining %≤ 100%) | CK1a substrate protein remaining % [6]: B (80%< substrate protein remaining %≤ 100%) | IKZF2 substrate protein remaining % [7]: A (0% ≤ substrate protein remaining % ≤ 80%)

IC50 [3]: < 500 nM
Structure (SMILES): O=C1CCC(N2Cc3cc(CN4CCN(c5ncccc5Cl)CC4)ccc3C2=O)C(=O)N1 (stereo not drawn) [GT-04428, 3-(5-((4-(3-chloropyridin-2-yl)piperazin-1-yl)methyl)-1-oxoisoindolin-2-yl)piperidine-2,6-dione]
GSPT1 substrate protein remaining % [1]: A (0% ≤ substrate protein remaining % ≤ 80%) | IKZF3 substrate protein remaining % [2]: B (80%< substrate protein remaining %≤ 100%) | Weel substrate protein remaining % [4]: B (80%< substrate protein remaining %≤ 100%) | IKZF 1 substrate protein remaining % [5]: B (80%< substrate protein remaining %≤ 100%) | CK1a substrate protein remaining % [6]: B (80%< substrate protein remaining %≤ 100%) | IKZF2 substrate protein remaining % [7]: B (80%< substrate protein remaining %≤ 100%)

IC50 [3]: 1000 to 1500 nM
Structure (SMILES): O=C1CCC(N2Cc3cc(CN4CCN(c5ccc(C(F)(F)F)cn5)CC4)ccc3C2=O)C(=O)N1 (stereo not drawn) [GT-04433, 3-(1-oxo-5-((4-(5-(trifluoromethyl)pyridin-2-yl)piperazin-1-yl)methyl)isoindolin-2-yl)piperidine-2,6-dione]
GSPT1 substrate protein remaining % [1]: A (0% ≤ substrate protein remaining % ≤ 80%) | IKZF3 substrate protein remaining % [2]: B (80%< substrate protein remaining %≤ 100%) | Weel substrate protein remaining % [4]: B (80%< substrate protein remaining %≤ 100%) | IKZF 1 substrate protein remaining % [5]: B (80%< substrate protein remaining %≤ 100%) | CK1a substrate protein remaining % [6]: B (80%< substrate protein remaining %≤ 100%) | IKZF2 substrate protein remaining % [7]: B (80%< substrate protein remaining %≤ 100%)

IC50 [3]: 500 to 1000 nM
Structure (SMILES): O=C1CCC(N2Cc3cc(CN4CCN(c5ncccc5C(F)(F)F)CC4)ccc3C2=O)C(=O)N1 (stereo not drawn) [GT-04434, 3-(1-oxo-5-((4-(3-(trifluoromethyl)pyridin-2-yl)piperazin-1-yl)methyl)isoindolin-2-yl)piperidine-2,6-dione]
GSPT1 substrate protein remaining % [1]: A (0% ≤ substrate protein remaining % ≤ 80%) | IKZF3 substrate protein remaining % [2]: B (80%< substrate protein remaining %≤ 100%) | Weel substrate protein remaining % [4]: B (80%< substrate protein remaining %≤ 100%) | IKZF 1 substrate protein remaining % [5]: B (80%< substrate protein remaining %≤ 100%) | CK1a substrate protein remaining % [6]: B (80%< substrate protein remaining %≤ 100%) | IKZF2 substrate protein remaining % [7]: B (80%< substrate protein remaining %≤ 100%)

IC50 [3]: 1000 to 1500 nM
Structure (SMILES): Cc1ccc(N2CCN(Cc3ccc4c(c3)CN(C3CCC(=O)NC3=O)C4=O)CC2)c(C)c1 (stereo not drawn) [GT-04439, 3-(5-((4-(2,4-dimethylphenyl)piperazin-1-yl)methyl)-1-oxoisoindolin-2-yl)piperidine-2,6-dione]
GSPT1 substrate protein remaining % [1]: A (0% ≤ substrate protein remaining % ≤ 80%) | IKZF3 substrate protein remaining % [2]: A (0% ≤ substrate protein remaining % ≤ 80%) | Weel substrate protein remaining % [4]: A (0% ≤ substrate protein remaining % ≤ 80%) | IKZF 1 substrate protein remaining % [5]: A (0% ≤ substrate protein remaining % ≤ 80%) | CK1a substrate protein remaining % [6]: A (0% ≤ substrate protein remaining % ≤ 80%) | IKZF2 substrate protein remaining % [7]: A (0% ≤ substrate protein remaining % ≤ 80%)

IC50 [3]: 500 to 1000 nM
Structure (SMILES): O=C1CCC(N2Cc3cc(CN4CCN(c5ccccn5)CC4)ccc3C2=O)C(=O)N1 (stereo not drawn) [GT-04449, 3-(1-oxo-5-((4-(pyridin-2-yl)piperazin-1-yl)methyl)isoindolin-2-yl)piperidine-2,6-dione]
GSPT1 substrate protein remaining % [1]: A (0% ≤ substrate protein remaining % ≤ 80%) | IKZF3 substrate protein remaining % [2]: A (0% ≤ substrate protein remaining % ≤ 80%) | Weel substrate protein remaining % [4]: A (0% ≤ substrate protein remaining % ≤ 80%) | IKZF 1 substrate protein remaining % [5]: A (0% ≤ substrate protein remaining % ≤ 80%) | CK1a substrate protein remaining % [6]: A (0% ≤ substrate protein remaining % ≤ 80%) | IKZF2 substrate protein remaining % [7]: A (0% ≤ substrate protein remaining % ≤ 80%)

IC50 [3]: 1000 to 1500 nM
Structure (SMILES): O=C1CCC(N2Cc3cc(CN4CCN(c5ccc(C(F)(F)F)cc5)CC4)ccc3C2=O)C(=O)N1 (stereo not drawn) [GT-04451, 3-(1-oxo-5-((4-(4-(trifluoromethyl)phenyl)piperazin-1-yl)methyl)isoindolin-2-yl)piperidine-2,6-dione]
GSPT1 substrate protein remaining % [1]: A (0% ≤ substrate protein remaining % ≤ 80%) | IKZF3 substrate protein remaining % [2]: B (80%< substrate protein remaining %≤ 100%) | Weel substrate protein remaining % [4]: B (80%< substrate protein remaining %≤ 100%) | IKZF 1 substrate protein remaining % [5]: B (80%< substrate protein remaining %≤ 100%) | CK1a substrate protein remaining % [6]: B (80%< substrate protein remaining %≤ 100%) | IKZF2 substrate protein remaining % [7]: B (80%< substrate protein remaining %≤ 100%)

Reference: patent publication EP4745137A1 (Gluetacs Therapeutics (Shanghai) Co., Ltd., priority 2023, dated 2025)
